Test results as given in patent US20240293559A1, “SHP2 inhibitor, pharmaceutical composition containing the same and application thereof” (BEIJING TIDE PHARMACEUTICAL CO., LTD., priority 2021, published 2024).

Target: T1, SHP2 (Homo sapiens, UniProt Q06124)
T1 construct: endogenous in cells; host or cells: MV 411
T1 sequence (Q06124 1-593): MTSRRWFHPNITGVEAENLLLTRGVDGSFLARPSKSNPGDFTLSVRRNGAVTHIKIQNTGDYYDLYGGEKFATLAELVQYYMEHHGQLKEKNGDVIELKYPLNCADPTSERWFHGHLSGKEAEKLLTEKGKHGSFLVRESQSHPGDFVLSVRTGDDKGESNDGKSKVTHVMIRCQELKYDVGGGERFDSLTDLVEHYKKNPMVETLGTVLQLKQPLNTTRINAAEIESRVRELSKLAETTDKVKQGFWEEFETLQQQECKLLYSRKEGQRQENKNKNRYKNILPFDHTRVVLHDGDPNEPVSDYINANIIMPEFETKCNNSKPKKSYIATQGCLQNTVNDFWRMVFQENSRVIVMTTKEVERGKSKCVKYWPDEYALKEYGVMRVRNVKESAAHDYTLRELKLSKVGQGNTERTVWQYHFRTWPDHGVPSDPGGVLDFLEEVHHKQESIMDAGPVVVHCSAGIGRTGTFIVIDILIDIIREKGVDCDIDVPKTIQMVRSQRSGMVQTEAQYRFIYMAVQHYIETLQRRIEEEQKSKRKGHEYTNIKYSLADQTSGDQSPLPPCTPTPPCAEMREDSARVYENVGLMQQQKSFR
Experiment: SHP2 degradation in MV 411 cells by Western blot (median degradation concentration)
Type: cell-based
Conditions: 24 hours with compound, SHP-2 antibody Western blot, concentration of the median degradation from exposure gray scale
Source text: Reagent: complete DMEM medium, Gibco products. Fetal bovine serum, manufactured byThermoFisher. Trypsin, manufactured byThermoFisher. The SHP-2 antibody is produced by CST. Cell line, MV 411, the blast cells of patients with bi-phenotypic B-myelomonocytic leukemia, was established by Rovera. Measuring method: took the cells growing in the logarithmic phase, collected and suspended the cells in DMEM containing 10% fetal calf serum, gently blowed and beated the cells into single cell suspension by using a pipette, and counted the living cells under a microscope. […] Then cultured for 24 hours. All cells were collected and washed with PBS, lysed with RIPA lysate and collected into a 1.7 ml tube. […] metal bath for 5 minutes to fully denature the protein. 100V constant voltage electrophoresis after Western condensation and loading, stopped when bromophenol blue band reached the end point. The cellulose acetate membrane is transferred by a wet method, 45 minutes at a constant flow of 300-500 mA, 5% BSA is used for blocking for 1-2 hours at room temperature. Primary antibody of 1:500-1:8000 were used for incubation at 25° C. for 40 minutes and then washed three times. Secondary antibody was used for incubation for 15-40 min at room temperature. The proteins were detected using ultrasensitive ECL luminophores such as […], using an X-Ray film automatic developing machine. The concentration of the median degradation was calculated by exposure gray scale.

| Compound | DC50 |
| --- | --- |
| CCOc1cc2oc(-c3ccc(NCCOCCOCCOCCOc4cccc5c4C(=O)N(C4CCC(=O)NC4=O)C5=O)cc3Cl)cc(=O)c2cc1-c1cccc(CO)c1 (centres unmarked) [Compound 11] | 50 nM |
| CCOc1cc2oc(-c3ccc(NCCOCCOCCOCCOc4cccc5c4C(=O)N(C4CCC(=O)NC4=O)C5=O)cc3Cl)cc(=O)c2cc1-c1cc(F)cc(C=O)c1 (centres unmarked) [Compound 17] | 250 nM |
| CCOc1cc2oc(-c3ccc(NCCOCCOCCOCCOc4cccc5c4C(=O)N(C4CCC(=O)NC4=O)C5=O)cc3Cl)cc(=O)c2cc1-c1cccc(C=O)c1 (centres unmarked) [Compound 18] | > 1000 nM |
| CCOc1cc2oc(-c3ccc(OCCOCCOCCOCCOc4cccc5c4C(=O)N(C4CCC(=O)NC4=O)C5=O)cc3Cl)cc(=O)c2cc1-c1ccc(S(C)(=O)=O)cc1F (centres unmarked) [Compound 28] | 110 nM |
| CCOc1cc2oc(-c3ccc(OCCOCCOCCOCCOc4cccc5c4C(=O)N(C4CCC(=O)NC4=O)C5=O)cc3Cl)cc(=O)c2cc1-c1cncc(C=O)c1 (centres unmarked) [Compound 29] | 15 nM |
| CCOc1cc2oc(-c3ccc(OCCOCCOCCOCCOc4cccc5c4C(=O)N(C4CCC(=O)NC4=O)C5=O)cc3Cl)cc(=O)c2cc1-c1cc(N)cc(C(=O)O)c1 (centres unmarked) [Compound 30] | 2000 nM |
| CCOc1cc2oc(-c3ccc(OCCOCCOCCOCCOc4cccc5c4C(=O)N(C4CCC(=O)NC4=O)C5=O)cc3Cl)cc(=O)c2cc1-c1ccc2c(c1)COC2=O (centres unmarked) [Compound 31] | 300 nM |
| CCOc1cc2oc(-c3ccc(OCCOCCOCCOCCOc4cccc5c4C(=O)N(C4CCC(=O)NC4=O)C5=O)cc3Cl)cc(=O)c2cc1-c1cc(N)cc(C(N)=O)c1 (centres unmarked) [Compound 32] | 850 nM |
| CCOc1cc2oc(-c3ccc(OCCOCCOCCOCCOc4cccc5c4C(=O)N(C4CCC(=O)NC4=O)C5=O)cc3Cl)cc(=O)c2cc1-c1ccc(S(=O)(=O)N2CCOCC2)cc1F (centres unmarked) [Compound 33] | 3500 nM |
| CCOc1cc2oc(-c3ccc(OCCOCCOCCOCCOc4cccc5c4C(=O)N(C4CCC(=O)NC4=O)C5=O)cc3Cl)cc(=O)c2cc1-c1ccc(S(=O)(=O)N2CCOCC2)cc1 (centres unmarked) [Compound 34] | 42 nM |
| CCOc1cc2oc(-c3ccc(NCCOCCOCCOCCOc4ccc5c(c4)C(=O)N(C4CCC(=O)NC4=O)C5=O)cc3Cl)cc(=O)c2cc1-c1cccc(C(C)=O)c1 (centres unmarked) [Compound 36] | 20 nM |
| CCOc1cc2oc(-c3ccc(OCCOCCOCCOCCOc4cccc5c4C(=O)N(C4CCC(=O)NC4=O)C5=O)cc3Cl)cc(=O)c2cc1-c1cc(C)cc(C(N)=O)c1 (centres unmarked) [Compound 42] | 750 nM |
| CCOc1cc2oc(-c3ccc(OCCOCCOCCOCCOc4cccc5c4C(=O)N(C4CCC(=O)NC4=O)C5=O)cc3Cl)cc(=O)c2cc1-c1cc(C(N)=O)cc(C(F)(F)F)c1 (centres unmarked) [Compound 44] | 750 nM |
| CCOc1cc2oc(-c3ccc(NCCOCCOCCOCCOc4cccc5c4C(=O)N(C4CCC(=O)NC4=O)C5=O)cc3Cl)cc(=O)c2cc1CN1CCC=C(n2c(=O)[nH]c3cc(NS(=O)(=O)C4CC4)ccc32)C1 (centres unmarked) [Compound 50] | > 750 nM |
| CCOc1cc2oc(-c3ccc(NCCOCCOCCOCCOc4cccc5c4C(=O)N(C4CCC(=O)NC4=O)C5=O)cc3Cl)cc(=O)c2cc1COc1ccccc1C(N)=O (centres unmarked) [Compound 52] | > 250 nM |
| CCOc1cc2oc(-c3ccc(OCCOCCOCCOCCOc4cccc5c4C(=O)N(C4CCC(=O)NC4=O)C5=O)cc3Cl)cc(=O)c2cc1-c1cc(C(N)=O)cc(C2CCCCC2)c1 (centres unmarked) [Compound 54] | > 250 nM |
| CCOc1cc2oc(-c3ccc(OCCOCCOCCOCCOc4cccc5c4C(=O)N(C4CCC(=O)NC4=O)C5=O)cc3Cl)cc(=O)c2cc1-c1cc(C(N)=O)cc(-c2ccccc2)c1 (centres unmarked) [Compound 55] | > 1000 nM |
| CCOc1cc2oc(-c3ccc(OCCOCCOCCOCCOc4cccc5c4C(=O)N(C4CCC(=O)NC4=O)C5=O)cc3Cl)cc(=O)c2cc1-c1cc(C(N)=O)cc(-c2cccnc2)c1 (centres unmarked) [Compound 57] | > 1000 nM |
| CCOc1cc2oc(-c3ccc(OCCOCCOCCOCCOc4cccc5c4C(=O)N(C4CCC(=O)NC4=O)C5=O)cc3Cl)cc(=O)c2cc1-c1cc(C(N)=O)cc(-c2ccncc2)c1 (centres unmarked) [Compound 58] | 500 nM |
| CCOc1cc2oc(-c3ccc(OCCOCCOCCOCCOc4cccc5c4C(=O)N(C4CCC(=O)NC4=O)C5=O)cc3Cl)cc(=O)c2cc1-c1cc(C(N)=O)cc(-n2ccnc2)c1 (centres unmarked) [Compound 60] | > 250 nM |
| CCOc1cc2oc(-c3ccc(OCCOCCOCCOCCOc4cccc5c4C(=O)N(C4CCC(=O)NC4=O)C5=O)cc3Cl)cc(=O)c2cc1-c1cc(C(N)=O)cc(-c2c[nH]cn2)c1 (centres unmarked) [Compound 61] | > 250 nM |
| CCOc1cc2oc(-c3ccc(OCCOCCOCCOCCOc4cccc5c4C(=O)N(C4CCC(=O)NC4=O)C5=O)cc3Cl)cc(=O)c2cc1-c1cc(NC)cc(C(N)=O)c1 (centres unmarked) [Compound 62] | > 250 nM |
| CCOc1cc2oc(-c3ccc(OCCOCCOCCOCCOc4cccc5c4C(=O)N(C4CCC(=O)NC4=O)C5=O)cc3Cl)cc(=O)c2cc1-c1cc(C(N)=O)cc(N(C)C)c1 (centres unmarked) [Compound 63] | > 250 nM |

Further lines, results first:

| DC50 | Compound |
| --- | --- |
| 920 nM | CCOc1cc2oc(-c3ccc(NCCOCCOCCOCCOc4cccc5c4C(=O)N(C4CCC(=O)NC4=O)C5=O)cc3Cl)cc(=O)c2cc1-c1ccc2c(c1)CCC2 (centres unmarked) [Compound 12] |
| 50 nM | CCOc1cc2oc(-c3ccc(NCCOCCOCCOCCOc4cccc5c4C(=O)N(C4CCC(=O)NC4=O)C5=O)cc3Cl)cc(=O)c2cc1-c1cc(C=O)ccc1F (centres unmarked) [Compound 13] |
| 25 nM | CCOc1cc2oc(-c3ccc(NCCOCCOCCOCCOc4cccc5c4C(=O)N(C4CCC(=O)NC4=O)C5=O)cc3Cl)cc(=O)c2cc1-c1cccc(C(C)=O)c1 (centres unmarked) [Compound 14] |
| 250 nM | CCOc1cc2oc(-c3ccc(NCCOCCOCCOCCOc4cccc5c4C(=O)N(C4CCC(=O)NC4=O)C5=O)cc3Cl)cc(=O)c2cc1-c1ccc(OC)cc1F (centres unmarked) [Compound 15] |
| 250 nM | CCOc1cc2oc(-c3ccc(NCCOCCOCCOCCOc4cccc5c4C(=O)N(C4CCC(=O)NC4=O)C5=O)cc3Cl)cc(=O)c2cc1-c1cccc(C(N)=O)c1 (centres unmarked) [Compound 16] |
| 3500 nM | CCOc1cc2oc(-c3ccc(OCCOCCOCCOCCOc4cccc5c4C(=O)N(C4CCC(=O)NC4=O)C5=O)cc3Cl)cc(=O)c2cc1-c1cccc(N)c1 (centres unmarked) [Compound 26] |
| 2 nM | CCOc1cc2oc(-c3ccc(OCCOCCOCCOCCOc4cccc5c4C(=O)N(C4CCC(=O)NC4=O)C5=O)cc3Cl)cc(=O)c2cc1-c1cccc(C(=O)OC)c1F (centres unmarked) [Compound 27] |
| 25 nM | CCOc1cc2oc(-c3ccc(OCCOCCOCCOCCOc4ccc5c(c4)C(=O)N(C4CCC(=O)NC4=O)C5=O)cc3Cl)cc(=O)c2cc1-c1cc(C(C)=O)cc(C(N)=O)c1 (centres unmarked) [Compound 35] |
| 750 nM | CCOc1cc2oc(-c3ccc(OCCOCCOCCOCCOc4cccc5c4C(=O)N(C4CCC(=O)NC4=O)C5=O)cc3Cl)cc(=O)c2cc1-c1cc(N)cc(C(=O)OC)c1 (centres unmarked) [Compound 40] |
| 1000 nM | CCOC(=O)c1cncc(-c2cc3c(=O)cc(-c4ccc(OCCOCCOCCOCCOc5cccc6c5C(=O)N(C5CCC(=O)NC5=O)C6=O)cc4Cl)oc3cc2OCC)c1 (centres unmarked) [Compound 41] |
| > 250 nM | CCOc1cc2oc(-c3ccc(OCCOCCOCCOCCOc4cccc5c4C(=O)N(C4CCC(=O)NC4=O)C5=O)cc3Cl)cc(=O)c2cc1-c1cc(C(N)=O)cc(C(C)(C)C)c1 (centres unmarked) [Compound 43] |
| > 250 nM | CCOc1cc2oc(-c3ccc(OCCOCCOCCOCCOc4cccc5c4C(=O)N(C4CCC(=O)NC4=O)C5=O)cc3Cl)cc(=O)c2cc1-c1ccccc1C(N)=O (centres unmarked) [Compound 45] |
| 6 nM | CCOc1cc2oc(-c3ccc(OCCOCCOCCOCCOc4cccc5c4C(=O)N(C4CCC(=O)NC4=O)C5=O)cc3Cl)cc(=O)c2cc1-c1cc(C(N)=O)ccc1O (centres unmarked) [Compound 46] |
| > 250 nM | CCOc1cc2oc(-c3ccc(NCCOCCOCCOCCOc4cccc5c4C(=O)N(C4CCC(=O)NC4=O)C5=O)cc3Cl)cc(=O)c2cc1CN1CCCC[C@@H]1C(N)=O (some centres unmarked) [Compound 51] |
| 5 nM | CCOc1cc2oc(-c3ccc(NCCOCCOCCOCCOc4cccc5c4C(=O)N(C4CCC(=O)NC4=O)C5=O)cc3Cl)cc(=O)c2cc1CN1CCC[C@@H]1CO (some centres unmarked) [Compound 53] |
| > 1000 nM | CCOc1cc2oc(-c3ccc(OCCOCCOCCOCCOc4cccc5c4C(=O)N(C4CCC(=O)NC4=O)C5=O)cc3Cl)cc(=O)c2cc1-c1cc(C(N)=O)cc(-c2ccccn2)c1 (centres unmarked) [Compound 56] |
| > 750 nM | CCOc1cc2oc(-c3ccc(OCCOCCOCCOCCOc4cccc5c4C(=O)N(C4CCC(=O)NC4=O)C5=O)cc3Cl)cc(=O)c2cc1-c1cc(C(N)=O)cc(-c2ncc[nH]2)c1 (centres unmarked) [Compound 59] |
| > 250 nM | CCOc1cc2oc(-c3ccc(OCCOCCOCCOCCOc4cccc5c4C(=O)N(C4CCC(=O)NC4=O)C5=O)cc3Cl)cc(=O)c2cc1-c1cc(NC(C)=O)cc(C(N)=O)c1 (centres unmarked) [Compound 64] |
